Measurements from patent US11117926B2, “Cholane derivatives for use in the treatment and/or prevention of FXR and TGR5/GPBAR1 mediated diseases” (BAR PHARMACEUTICALS S.R.L., priority 2014, dated 2021).

Columns and labels:
[1] = patients suffering from primary biliary cirrhosis (PBC), clinical trials; cited from earlier work
human GPBAR1 = molecular target: T1, human GPBAR1 (Homo sapiens, UniProt Q8TDU6); assay: GPBAR1 mediated transactivation (CRE luciferase reporter) in transfected HEK-293T cells; assay type: cell-based; conditions: each compound at 10 microM, transactivation activity of TLCA on CRE = 100%
T1 construct: expressed in transfected cells; host or cells: HEK-293T
T1 sequence (Q8TDU6 1-330): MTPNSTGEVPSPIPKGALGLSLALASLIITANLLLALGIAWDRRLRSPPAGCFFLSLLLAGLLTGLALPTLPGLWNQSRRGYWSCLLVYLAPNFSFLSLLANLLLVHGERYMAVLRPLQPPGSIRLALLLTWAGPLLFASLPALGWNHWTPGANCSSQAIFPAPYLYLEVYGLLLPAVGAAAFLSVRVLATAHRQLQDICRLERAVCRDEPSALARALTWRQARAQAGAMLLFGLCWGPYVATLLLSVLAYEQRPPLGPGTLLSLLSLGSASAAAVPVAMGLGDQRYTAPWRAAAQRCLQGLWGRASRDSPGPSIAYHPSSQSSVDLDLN
Procedure: (§1) Each compound was tested at the concentration of 10 microM and transactivation activity of CDCA on FXR and TLCA on CRE (i.e. TGR5/GPBAR1) was considered equal to 100%.
(§2) Biological Activities. Activity of selected compounds was tested in vitro using a whole cell model transfected with a reporter genes to establish selectivity of compounds shown in table 1 toward FXR and TGR5/GPBAR1 in comparison with chenodeoxycholic acid (CDCA) and TLCA. CDCA is a primary bile acid that functions as an endogenous ligand for FXR, while TLCA is a physiological ligand for TGR5/GPBAR1. In this assay, HepG2 cells (a liver-derived cell line) were cultured at 37° C. in minimum essential medium with Earl's salts containing 10% fetal bovine serum (FBS), 1% L-glutamine, and 1% penicillin/streptomycin. […] The transfection experiments were performed using Fugene HD according to manufactured specifications. Cells were plated in a 24-well plate at 5×10^4 cells/well. For FXR mediated transactivation, HepG2 cells were transfected with 100 ng of pSG5-FXR, 100 ng of pSG5-RXR, 100 ng of pGL4.70 a vector encoding the human Renilla gene and 250 ng of the reporter vector p(hsp27)-TK-LUC containing the FXR response element IR1 cloned from the promoter of heat shock protein 27 (hsp27).
(§3) At 24 h post-transfection, cells were stimulated for 18 h with 10 μM TLCA as a control agent or putative GPBAR1 agonists as the same concentration. After treatments, cells were lysed in 100 μL of lysis buffer (25 mM Tris-phosphate, pH 7.8; 2 mM DTT; 10% glycerol; 1% Triton X-100), and 20 μL of cellular lysate was assayed for luciferase activity using the luciferase assay system. Luminescence was measured using Glomax 20/20 luminometer. Luciferase activities were normalized against Renilla activities. Antagonism against FXR of GPBAR1/TGR5 was measured as percent of activity in transactivation assay suing activity of TLCA as example of agonism.

FXR = molecular target: T2, FXR (Homo sapiens, UniProt Q96RI1); assay: FXR mediated transactivation (luciferase reporter) in transfected HepG2 cells; assay type: cell-based; conditions: each compound at 10 microM, transactivation activity of CDCA on FXR = 100%
T2 construct: expressed in transfected cells; host or cells: HepG2
T2 sequence (Q96RI1 1-486): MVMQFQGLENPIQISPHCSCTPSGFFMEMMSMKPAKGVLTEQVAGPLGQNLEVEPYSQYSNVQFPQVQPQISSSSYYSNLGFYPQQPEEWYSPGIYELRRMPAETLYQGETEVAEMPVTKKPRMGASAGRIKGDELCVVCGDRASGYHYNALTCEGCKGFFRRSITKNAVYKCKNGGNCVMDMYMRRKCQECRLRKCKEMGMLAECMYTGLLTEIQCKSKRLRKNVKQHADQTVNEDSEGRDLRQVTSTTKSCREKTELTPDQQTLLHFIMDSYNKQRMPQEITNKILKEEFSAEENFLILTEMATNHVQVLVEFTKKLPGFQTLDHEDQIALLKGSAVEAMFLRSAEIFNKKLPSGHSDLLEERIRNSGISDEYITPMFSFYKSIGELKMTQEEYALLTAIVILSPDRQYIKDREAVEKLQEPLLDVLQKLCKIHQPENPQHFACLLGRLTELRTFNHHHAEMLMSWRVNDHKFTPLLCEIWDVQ
T2 sequence (P19793 1-462 partner): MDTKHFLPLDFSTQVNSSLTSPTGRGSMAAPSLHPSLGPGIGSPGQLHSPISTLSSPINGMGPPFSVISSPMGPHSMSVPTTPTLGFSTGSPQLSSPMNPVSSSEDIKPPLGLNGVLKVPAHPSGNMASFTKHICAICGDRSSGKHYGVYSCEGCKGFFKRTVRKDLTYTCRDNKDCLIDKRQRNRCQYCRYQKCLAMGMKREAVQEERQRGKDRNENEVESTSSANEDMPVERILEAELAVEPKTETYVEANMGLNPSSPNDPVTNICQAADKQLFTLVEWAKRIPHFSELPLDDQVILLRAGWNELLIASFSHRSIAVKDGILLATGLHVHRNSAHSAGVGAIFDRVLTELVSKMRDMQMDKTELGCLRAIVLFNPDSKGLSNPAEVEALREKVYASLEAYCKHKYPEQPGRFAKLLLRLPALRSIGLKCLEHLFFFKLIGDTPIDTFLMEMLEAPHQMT
Procedure: as §1, §2, §3

[2] = system: sea lamprey (Petromyzon marinus); conditions: cited from earlier work
[3] = molecular target: T3, intestinal bile acid carrier (Homo sapiens, UniProt Q12908); conditions: CaCo-2 cells; cited from earlier work
T3 construct: host or cells: CaCo-2
T3 sequence (Q12908 1-348): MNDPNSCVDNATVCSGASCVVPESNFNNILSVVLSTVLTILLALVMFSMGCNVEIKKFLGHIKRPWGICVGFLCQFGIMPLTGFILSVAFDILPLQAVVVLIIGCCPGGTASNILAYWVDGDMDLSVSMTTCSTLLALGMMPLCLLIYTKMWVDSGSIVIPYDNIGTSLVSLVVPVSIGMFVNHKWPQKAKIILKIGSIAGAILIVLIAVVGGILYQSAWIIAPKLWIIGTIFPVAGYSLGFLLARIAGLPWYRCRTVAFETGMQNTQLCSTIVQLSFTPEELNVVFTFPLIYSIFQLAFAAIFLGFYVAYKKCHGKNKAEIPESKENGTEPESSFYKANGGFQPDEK

[4] = not given; remark: listed apart in the source
[5] = ANIT or 17α-ethynylestradiol cholestasis models

CC[C@H]1[C@@H](O)[C@@H]2[C@H](CC[C@]3(C)[C@@H]([C@H](C)CCC(=O)O)CC[C@@H]23)[C@@]2(C)CC[C@@H](O)C[C@@H]12 [obeticholic acid]
patients with severe itching [1]: approximately 80%

C[C@H](CCCOS(=O)(=O)O)[C@H]1CCC2C3CC[C@@H]4CCCC[C@]4(C)C3CC[C@@]21C (stereo partly shown) [BAR407]
GPBAR1 (% of activity in comparison to 10 μM TLCA) (human GPBAR1): 37.3 ± 2.5%
FXR (% of activity in comparison to 10 μM CDCA) (FXR): 177.1 ± 3.5%
olfactory response [2]: did not to elicit an olfactory response

C[C@H](CC(=O)O)[C@H]1CCC2C3CC[C@@H]4CCCC[C@]4(C)C3CC[C@@]21C (stereo partly shown) [BARn406]
GPBAR1 (% of activity in comparison to 10 μM TLCA) (human GPBAR1): 4.8 ± 1.8%
FXR (% of activity in comparison to 10 μM CDCA) (FXR): 27.0 ± 1.5%
ability to inhibit taurocholic acid transport [3]: undetectable

CC[C@H]1[C@@H](O)C2C3CC[C@H]([C@H](C)CCO)[C@@]3(C)CCC2[C@@]2(C)CC[C@@H](O)C[C@@H]12 (stereo partly drawn) [BAR502, 6α-ethyl-3α, 7α-dihydroxy-24-nor-5β-cholan-23-ol]
GPBAR1 (% of activity in comparison to 10 μM TLCA) (human GPBAR1): 74.5 ± 6.4%
liver expression of canonical FXR target genes including OSTα, BSEP, SHP and MDR1 [5]: robustly modulates
serum alkaline phosphatase levels [5]: attenuates
survival [5]: increases survival
itching (pruritus) (mouse, in vivo): does not induce itching
FXR (% of activity in comparison to 10 μM CDCA) (FXR): 263.0 ± 32.0%
bile acid pool ([4]; 17α-ethynylestradiol model): reshapes bile acid pool
cholestasis ([4]; 17α-ethynylestradiol model): attenuates cholestasis
itching ([4]; mouse, in vivo): without inducing itching
